# From patent US20250382344A1, “Soluble GLP1/GIP/NPY2 Receptor Triple Agonists” (Boehringer Ingelheim International GmH, priority 2024, published 2025)
# Where two headings read alike, the source gives them in different places. Where a SMILES comes first, the peptide text is derived from it. Side-chain parts run from the residue outwards. [ ]: non-standard residue; d: D form. The star is where a group is joined. ξ: configuration not given here. NMeY = CN[C@@H](Cc1ccc(O)cc1)C(=O)O; Palmitoyl = CCCCCCCCCCCCCCCC(=O)*; αMeF = C[C@](N)(Cc1ccccc1)C(=O)O; ξIva = CCC(C)(N)C(=O)O; Aib = CC(C)(N)C(=O)O
# Assay: Solubility in 0.1 M phosphate buffer at pH 7
# Format: physicochemical
# Details: 0.1 M phosphate buffer at pH 7, 10 mg/mL final peptide concentration, shaking 2 hours at room temperature, peptides as TFA-salts, measured sample pH 6.5-7.0
# Description: Peptides (as TFA-salts) were weighed out in a filter unit (Mini-UniPrep Syringeless Filter 0.45 μm, Whatman PVDF), and 0.1 M phosphate buffer at pH 7 was added to achieve 10 mg/mL final peptide concentration. The peptides were dissolved by shaking the filter units horizontally at 600 rpm for 2 hours at room temperature. Samples were then filtered to remove any insoluble particles. Controls were prepared by weighing out the corresponding peptide solid material and dissolving it in an appropriate vehicle (e.g. ACN:H2O) to a final concentration of 1 mg/mL. Both, the control and sample were analyzed by reversed phase chromatography. The area under the peak of the sample was compared to the control and the solubility was calculated based on that ratio. The pH was measured and recorded for each sample.
solubility (read-out: Solubility) [µg/mL],solubility at 2 h [µg/mL],solubility [µg/mL],Compound
4700,–,–,"CC[C@H](C)[C@H](NC(=O)[C@H](CC(C)C)NC(=O)[C@H](Cc1c[nH]cn1)NC(=O)[C@H](CCCNC(=N)N)NC(=O)[C@@H](NC(=O)[C@H](Cc1ccccc1)NC(=O)[C@H](C)NC(=O)C(C)(C)NC(=O)[C@H](CCC(N)=O)NC(=O)[C@H](C)NC(=O)[C@H](CCC(N)=O)NC(=O)[C@H](CCCCN)NC(=O)[C@H](CCC(=O)O)NC(=O)[C@H](CC(C)C)NC(=O)C(C)(C)NC(=O)[C@@H](NC(=O)[C@H](CO)NC(=O)[C@H](Cc1ccc(O)cc1)NC(=O)[C@H](CC(=O)O)NC(=O)[C@H](CO)NC(=O)[C@@H](NC(=O)[C@H](Cc1ccccc1)NC(=O)[C@@H](NC(=O)CNC(=O)[C@H](CCC(=O)O)NC(=O)C(C)(C)NC(=O)[C@@H](N)Cc1ccc(O)cc1)[C@@H](C)O)[C@@H](C)O)[C@@H](C)CC)C(C)C)C(=O)N[C@@H](CC(N)=O)C(=O)N[C@@H](CCCCNC(=O)[C@@H](N)CCNC(=O)CC[C@H](NC(=O)CC[C@H](NC(=O)CC[C@H](NC(=O)CC[C@H](NC(=O)CC[C@H](NC(=O)CC[C@H](NC(=O)CCCCCCCCCCCCCCCCC(=O)O)C(=O)O)C(=O)O)C(=O)O)C(=O)O)C(=O)O)C(=O)O)C(=O)NC(C)(C)C(=O)N[C@H](C(=O)N[C@@H](CCCNC(=N)N)C(=O)N[C@@H](CCC(N)=O)C(=O)N[C@@H](CCCNC(=N)N)C(=O)N[C@@H](Cc1ccc(O)cc1)C(N)=O)[C@@H](C)O [Compound 120, Y-Aib-E-G-T-F-T-S-D-Y-S-I-Aib-L-E-K-Q-A-Q-Aib-A-F-V-R-H-L-I-N-K(1,3)-Aib-T-R-Q-R-Y-NH2.C18DA-gGlu-gGlu-gGlu-gGlu-gGlu-gGlu-gDab(1,2)]"
–,9000,–,"CC[C@H](C)[C@H](NC(=O)[C@H](C)NC(=O)[C@H](Cc1c[nH]cn1)NC(=O)[C@H](CCCNC(=N)N)NC(=O)[C@@H](NC(=O)[C@H](Cc1ccccc1)NC(=O)[C@H](C)NC(=O)C(C)(C)NC(=O)[C@H](CCC(N)=O)NC(=O)[C@H](C)NC(=O)[C@H](CCC(N)=O)NC(=O)[C@H](CCCCN)NC(=O)[C@H](CCC(=O)O)NC(=O)[C@H](CC(C)C)NC(=O)C(C)(C)NC(=O)[C@@H](NC(=O)[C@H](CO)NC(=O)[C@H](Cc1ccc(O)cc1)NC(=O)[C@H](CC(=O)O)NC(=O)[C@H](CO)NC(=O)[C@@H](NC(=O)[C@H](Cc1ccccc1)NC(=O)[C@@H](NC(=O)CNC(=O)[C@H](CCC(=O)O)NC(=O)C(C)(C)NC(=O)[C@@H](N)Cc1ccc(O)cc1)[C@@H](C)O)[C@@H](C)O)[C@@H](C)CC)C(C)C)C(=O)N[C@@H](CC(N)=O)C(=O)N[C@@H](CCCCNC(=O)[C@@H](N)CCCCNC(=O)CC[C@H](NC(=O)CC[C@H](NC(=O)CC[C@H](NC(=O)CC[C@H](NC(=O)CC[C@H](NC(=O)CC[C@H](NC(=O)CCCCCCCCCCCCCCCCC(=O)O)C(=O)O)C(=O)O)C(=O)O)C(=O)O)C(=O)O)C(=O)O)C(=O)NC(C)(C)C(=O)N[C@H](C(=O)N[C@@H](CCCNC(=N)N)C(=O)N[C@@H](CCC(N)=O)C(=O)N[C@@H](CCCNC(=N)N)C(=O)N[C@@H](Cc1ccc(O)cc1)C(N)=O)[C@@H](C)O [Compound 139, Y-Aib-E-G-T-F-T-S-D-Y-S-I-Aib-L-E-K-Q-A-Q-Aib-A-F-V-R-H-A-I-N-K(1,3)-Aib-T-R-Q-R-Y-NH2.C18DA-gGlu-gGlu-gGlu-gGlu-gGlu-gGlu-eLys(1,2)]"
–,< 1000,<1000,"CCCCCCCCCCCCCCCC(=O)NCC(=O)NCC(=O)NCC(=O)NCC(=O)NCCCC[C@H](NC(=O)[C@H](CC(=O)O)NC(=O)[C@H](CO)NC(=O)[C@@H](NC(=O)[C@](C)(Cc1ccccc1)NC(=O)[C@@H](NC(=O)CNC(=O)[C@H](CCC(=O)O)NC(=O)C(C)(C)NC(=O)[C@H](Cc1ccc(O)cc1)NC)[C@@H](C)O)[C@@H](C)O)C(=O)N[C@@H](CO)C(=O)N[C@H](C(=O)NC(C)(C)C(=O)N[C@@H](CC(C)C)C(=O)N[C@@H](CCC(=O)O)C(=O)N[C@@H](CCCCN)C(=O)N[C@@H](CCC(N)=O)C(=O)N[C@@H](CCCNC(=N)N)C(=O)N[C@@H](CCC(N)=O)C(=O)NC(C)(CC)C(=O)N[C@@H](CCC(=O)O)C(=O)N[C@@H](Cc1ccccc1)C(=O)N[C@H](C(=O)N[C@@H](CCCNC(=N)N)C(=O)N[C@@H](Cc1c[nH]cn1)C(=O)N[C@@H](CC(C)C)C(=O)N[C@@H](CC(C)C)C(=O)N[C@@H](CC(N)=O)C(=O)N[C@@H](CCCCN)C(=O)NC(C)(C)C(=O)N[C@H](C(=O)N[C@@H](CCCNC(=N)N)C(=O)N[C@@H](CCC(N)=O)C(=O)N[C@@H](CCCNC(=N)N)C(=O)N[C@@H](Cc1ccc(O)cc1)C(N)=O)[C@@H](C)O)C(C)C)[C@@H](C)CC (stereo partly drawn) [Ref. 1, NMeY-Aib-E-G-T-aMeF-T-S-D-K(1,3)-S-I-Aib-L-E-K-Q-R-Q-Iva-E-F-V-R-H-L-L-N-K-Aib-T-R-Q-R-Y-NH2.C16A-G-G-G-G(1,2), reference compound] (H-[NMeY][Aib]EGT[αMeF]TSDK([Gly-Gly-Gly-Gly-Palmitoyl])SI[Aib]LEKQRQ[ξIva]EFVRHLLNK[Aib]TRQRY-NH2)"
800,–,–,"CC[C@H](C)[C@H](NC(=O)[C@H](CC(C)C)NC(=O)[C@H](Cc1c[nH]cn1)NC(=O)[C@H](CCCNC(=N)N)NC(=O)[C@@H](NC(=O)[C@H](Cc1ccccc1)NC(=O)[C@H](C)NC(=O)C(C)(C)NC(=O)[C@H](CCC(N)=O)NC(=O)[C@H](C)NC(=O)[C@H](CCC(N)=O)NC(=O)[C@H](CCCCN)NC(=O)[C@H](CCC(=O)O)NC(=O)[C@H](CC(C)C)NC(=O)C(C)(C)NC(=O)[C@@H](NC(=O)[C@H](CO)NC(=O)[C@H](Cc1ccc(O)cc1)NC(=O)[C@H](CC(=O)O)NC(=O)[C@H](CO)NC(=O)[C@@H](NC(=O)[C@H](Cc1ccccc1)NC(=O)[C@@H](NC(=O)CNC(=O)[C@H](CCC(=O)O)NC(=O)C(C)(C)NC(=O)[C@@H](N)Cc1ccc(O)cc1)[C@@H](C)O)[C@@H](C)O)[C@@H](C)CC)C(C)C)C(=O)N[C@@H](CC(N)=O)C(=O)N[C@@H](CCCCNC(=O)COCCOCCNC(=O)CC[C@H](NC(=O)CC[C@H](NC(=O)CC[C@H](NC(=O)CC[C@H](NC(=O)CCCCCCCCCCCCCCCCC(=O)O)C(=O)O)C(=O)O)C(=O)O)C(=O)O)C(=O)NC(C)(C)C(=O)N[C@H](C(=O)N[C@@H](CCCNC(=N)N)C(=O)N[C@@H](CCC(N)=O)C(=O)N[C@@H](CCCNC(=N)N)C(=O)N[C@@H](Cc1ccc(O)cc1)C(N)=O)[C@@H](C)O [Compound 110, Y-Aib-E-G-T-F-T-S-D-Y-S-I-Aib-L-E-K-Q-A-Q-Aib-A-F-V-R-H-L-I-N-K(1,3)-Aib-T-R-Q-R-Y-NH2.C18DA-gGlu-gGlu-gGlu-gGlu-OEG(1,2)]"
